Legend:
human KHK-A = human KHK-A (Homo sapiens (Human), UniProt P50053); test: KHK Biochemical Assay (IC50), ADP-Glo, KHK-A; settings: average of at least two separate assays
In short: (§1)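 His-tagged enzyme expressed in BL21 (DE3), Ni-NTA purified. Compounds, serially diluted 1:3 in DMSO, pre-incubated 30 min with enzyme in 50 mM Hepes pH 7.4, 140 mM KCl, 5 mM MgCl2, 0.01% Triton-X, then ATP and fructose added; 4 h at room temperature. ADP formation read by ADP-Glo luminescence.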

human KHK-C = human KHK-C (Homo sapiens (Human), UniProt P50053); test: KHK Biochemical Assay (IC50), ADP-Glo, KHK-C; settings: average of at least two separate assays
Sequence of human KHK-C (P50053 whole entry): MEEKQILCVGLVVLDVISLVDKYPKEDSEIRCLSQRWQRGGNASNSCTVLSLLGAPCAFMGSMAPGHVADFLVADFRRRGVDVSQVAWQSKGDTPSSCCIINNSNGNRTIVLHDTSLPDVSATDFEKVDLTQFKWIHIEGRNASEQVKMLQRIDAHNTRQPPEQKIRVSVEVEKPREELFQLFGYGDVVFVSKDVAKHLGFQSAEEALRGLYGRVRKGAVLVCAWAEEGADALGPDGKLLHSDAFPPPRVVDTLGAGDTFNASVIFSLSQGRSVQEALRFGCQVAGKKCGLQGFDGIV
In short: as §1

[1] = target: KHK-C expressed in NRK-52E cells (Homo sapiens (Human), UniProt P50053); test: KHK-C Cell-based Assay (EC50), NRK CTG, fructose-mediated ATP-depletion
Sequence of KHK-C expressed in NRK-52E cells (P50053 whole entry): as above
Experimental: Compounds were tested in a high-throughput 384-well assay format for their ability to attenuate fructose-mediated ATP-depletion in Normal Rat Kidney epithelial cells (NRK-52E) using the Cell-Titer Glo (CTG) assay, which measures cellular ATP levels based on luminescence signal by using the luciferase-luciferin system. Compounds were serially diluted (1:3) in DMSO.
The plates were incubated at 37° C., 5% CO2 for one day. Cells were then transduced on day 2 with 200 MOI of Adenovirus (VQAd KHKC C-(K)-DYK ViraQuest Inc.) using the same medium and method as day-1 to induce KHK-C expression in the cells. Cells were incubated at 37° C., 5% CO2 for one day. On day-3, the medium was changed to DMEM medium (Corning, Catalog #10-014-CM) with 0.5% FBS and Penicillin-Streptomycin after washing the cells twice with sterile PBS on the BioTEK EL406 washer and dispenser. Test compounds were then diluted 200-fold into the assay plates using the BioMek FX and were incubated for 1 hour at 37° C., 5% CO2. 25 mM (final concentration) of fructose was then dispensed into the plates using the BioTEK EL406 dispenser and the plates were incubated at 37° C., 5% CO2 for 48 hours before addition of CTG reagent and measurement of luminescence signal.

Sequence of human KHK-A (P50053 other isoform, or with tags, fused parts or gaps): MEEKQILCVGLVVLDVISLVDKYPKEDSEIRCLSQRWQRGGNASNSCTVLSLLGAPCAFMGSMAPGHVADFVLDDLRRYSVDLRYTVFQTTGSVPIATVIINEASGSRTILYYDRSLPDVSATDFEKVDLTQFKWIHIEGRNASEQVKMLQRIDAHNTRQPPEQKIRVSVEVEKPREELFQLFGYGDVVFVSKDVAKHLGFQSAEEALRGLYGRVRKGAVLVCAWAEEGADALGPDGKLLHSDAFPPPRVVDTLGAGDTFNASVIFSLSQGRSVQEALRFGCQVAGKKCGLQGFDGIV

Row | SMILES | IC50 (human KHK-A; ADP-Glo) [nM] | IC50 (human KHK-C; ADP-Glo) [nM] | EC50 [1] [nM] | IC50 (human KHK-A) [nM] | IC50 (human KHK-C) [nM]
1 | C[C@H]1CCN1c1nc(-c2ccc(C(N)=O)cc2)c2[nH]ncc2n1 [Example 396, (S)-4-(5-(2-methylazetidin-1-yl)-1H-pyrazolo[4,3-d]pyrimidin-7-yl)benzamide] | – | – | 2510 | 130 | 80
2 | C[C@H]1CCN1c1nc2c(c(-c3ccc4c(c3)C(=O)NC(=O)C4)n1)CCC2 [Example 424, (S)-7-(2-(2-methylazetidin-1-yl)-6,7-dihydro-5H-cyclopenta[d]pyrimidin-4-yl)isoquinoline-1,3(2H,4H)-dione] | – | – | 3510 | 169 | 136
3 | C[C@H]1CCN1c1nc2c(c(-c3ccc4[nH]c(=O)[nH]c(=O)c4c3)n1)CCC2 [Example 425, 6-[2-[(2S)-2-methylazetidin-1-yl]-6,7-dihydro-5H-cyclopenta[d]pyrimidin-4-yl]-1H-quinazoline-2,4-dione] | – | – | 122 | 21.7 | 31.4
4 | C[C@H]1CCN1c1nc2c(c(-c3ccc4c(c3)C3C(C4)C3C(=O)O)n1)CCC2 (stereo partly drawn) [Example 428, 3-[2-[(2S)-2-methylazetidin-1-yl]-6,7-dihydro-5H-cyclopenta[d]pyrimidin-4-yl]-1,1a,6,6a-tetrahydrocyclopropa[a]indene-1-carboxylic acid] | – | – | 387 | 38.4 | 41.3
5 | NC(=O)c1ccc(-c2nc(N3CCC34CCC4)nc3c2CCC3)cc1 [Example 430, 4-[2-(1-azaspiro[3.3]heptan-1-yl)-6,7-dihydro-5H-cyclopenta[d]pyrimidin-4-yl]benzamide] | – | – | 3220 | 3160 | 2120
6 | C[C@H]1CCN1c1nc2c(c(-c3cccc4c3CC3C(C(=O)O)C43)n1)CCC2 (stereo partly drawn) [Example 432, 5-[2-[(2S)-2-methylazetidin-1-yl]-6,7-dihydro-5H-cyclopenta[d]pyrimidin-4-yl]-1,1a,6,6a-tetrahydrocyclopropa[a]indene-1-carboxylic acid] | – | – | 2630 | 323 | 360
7 | NC(=O)c1ccc(-c2nc(N3CCC34CCOC4)nc3c2CCC3)cc1 (stereo not drawn) [Example 434, 4-[2-(7-oxa-1-azaspiro[3.4]octan-1-yl)-6,7-dihydro-5H-cyclopenta[d]pyrimidin-4-yl]benzamide] | – | – | 3310 | 2930 | 1620
8 | C[C@H]1CCN1c1nc2c(c(-c3ccnc(OC(F)F)c3)n1)CCC2 [Example 453, 4-[2-(difluoromethoxy)-4-pyridyl]-2-[(2S)-2-methylazetidin-1-yl]-6,7-dihydro-5H-cyclopenta[d]pyrimidine] | – | – | 1040 | 1010 | 776
9 | C[C@H]1CCN1c1nc2c(c(-c3ccc(C4(C(=O)O)CC4)cc3)n1)CCC2 [Example 455, 1-[4-[2-[(2S)-2-methylazetidin-1-yl]-6,7-dihydro-5H-cyclopenta[d]pyrimidin-4-yl]phenyl]cyclopropanecarboxylic acid] | – | – | > 5000 | 497 | 248
10 | C[C@H]1[C@H](O)CN1c1nc(-c2ccc3c(c2)CCC32CCC(=O)N2)c2c(n1)C(F)(F)CC2 (stereo partly drawn) [Example 636, 5-(7,7-difluoro-2-((2S,3R)-3-hydroxy-2-methylazetidin-1-yl)-6,7-dihydro-5H-cyclopenta[d]pyrimidin-4-yl)-2,3-dihydrospiro[indene-1,2′-pyrrolidin]-5′-one] | – | – | 13 | 11.4 | 0.5
11 | O=C1N[C@@]2(CO1)COc1cc(-c3nc(N4CC[C@@H]4C(F)(F)F)nc4c3CCC4(F)F)ccc12 [Example 830, (R)-6-(7,7-difluoro-2-((R)-2-(trifluoromethyl)azetidin-1-yl)-6,7-dihydro-5H-cyclopenta[d]pyrimidin-4-yl)-2H-spiro[benzofuran-3,4′-oxazolidin]-2′-one] | 2 | 0.2 | 3.2 | – | –
12 | C[C@H]1CCN1c1nc2c(c(-c3cccc(S(=N)(=O)C4CCOCC4)c3)n1)CCC2 (stereo partly drawn) [Example 880, imino(3-(2-((S)-2-methylazetidin-1-yl)-6,7-dihydro-5H-cyclopenta[d]pyrimidin-4-yl)phenyl)(tetrahydro-2H-pyran-4-yl)-λ^6-sulfanone] | 22.5 | 31.6 | > 100 | – | –

The remaining lines, values ahead:

Row | IC50 (human KHK-A; ADP-Glo) [nM] | IC50 (human KHK-C; ADP-Glo) [nM] | EC50 [1] [nM] | IC50 (human KHK-A) [nM] | IC50 (human KHK-C) [nM] | SMILES
13 | 4220 | 2480 | 3330 | – | – | C[C@H]1CCN1c1nc2c(c(-c3nc4cc(F)ccc4n3C)n1)CCC2 [Example 390, 5-fluoro-1-methyl-2-[2-[(2S)-2-methylazetidin-1-yl]-6,7-dihydro-5H-cyclopenta[d]pyrimidin-4-yl]benzimidazole]
14 | 2190 | 915 | 1810 | – | – | C[C@H]1CCN1c1nc2c(c(-c3nc4ccccc4n3C)n1)CCC2 [Example 391, 1-methyl-2-[2-[(2S)-2-methylazetidin-1-yl]-6,7-dihydro-5H-cyclopenta[d]pyrimidin-4-yl]benzimidazole]
15 | – | – | > 5000 | 397 | 138 | C[C@H]1CCN1c1nc2c(c(-c3ccc4c(c3)[C@]3(C[C@H]3c3nc[nH]n3)C(=O)N4)n1)CCC2 [Example 414, (1R,2R)-5′-(2-((S)-2-methylazetidin-1-yl)-6,7-dihydro-5H-cyclopenta[d]pyrimidin-4-yl)-2-(1H-1,2,4-triazol-3-yl)spiro[cyclopropane-1,3′-indolin]-2′-one]
16 | – | – | 239 | 66.1 | 81.4 | C[C@H]1CCN1c1nc2c(c(-c3cc(C(N)=O)c4ccccc4c3)n1)CCC2 [Example 423, (S)-3-(2-(2-methylazetidin-1-yl)-6,7-dihydro-5H-cyclopenta[d]pyrimidin-4-yl)-1-naphthamide]
17 | – | – | 92.8 | 17.9 | 40.1 | C[C@H]1CCN1c1nc2c(c(-c3ccc4c(=O)[nH]c(=O)[nH]c4c3)n1)CCC2 [Example 426, 7-[2-[(2S)-2-methylazetidin-1-yl]-6,7-dihydro-5H-cyclopenta[d]pyrimidin-4-yl]-1H-quinazoline-2,4-dione]
18 | – | – | 1730 | 48.6 | 41.6 | C[C@H]1CCN1c1nc2c(c(-c3ccc4c(=O)[nH][nH]c(=O)c4c3)n1)CCC2 [Example 429, 6-[2-[(2S)-2-methylazetidin-1-yl]-6,7-dihydro-5H-cyclopenta[d]pyrimidin-4-yl]-2,3-dihydrophthalazine-1,4-dione]
19 | – | – | 711 | 808 | 513 | NC(=O)c1ccc(-c2nc(N3CC(O)[C@@H]3Cc3ccccc3)nc3c2CCC3)cc1 (stereo partly drawn) [Example 431, 4-[2-[(2S)-2-benzyl-3-hydroxy-azetidin-1-yl]-6,7-dihydro-5H-cyclopenta[d]pyrimidin-4-yl]benzamide]
20 | – | – | 124 | 15.4 | 13.1 | C[C@H]1CCN1c1nc2c(c(-c3cccc(C4CC(C(=O)O)C4)c3)n1)CCC2 (stereo partly drawn) [Example 439, 3-[3-[2-[(2S)-2-methylazetidin-1-yl]-6,7-dihydro-5H-cyclopenta[d]pyrimidin-4-yl]phenyl]cyclobutanecarboxylic acid]
21 | – | – | 25.7 | 8 | 5 | COc1c(C)cc(-c2nc(N3C[C@@H](O)[C@@H]3C)nc3c2CCC3(F)F)cc1S(C)(=N)=O (stereo partly drawn) [Example 722, (5-(7,7-difluoro-2-((2S,3R)-3-hydroxy-2-methylazetidin-1-yl)-6,7-dihydro-5H-cyclopenta[d]pyrimidin-4-yl)-2-methoxy-3-methylphenyl)(imino)(methyl)-λ^6-sulfanone]
22 | – | – | 273 | 29.1 | 33.5 | C[C@H]1CCN1c1nc2c(c(-c3ccc4[nH]nnc4c3)n1)CCC2 [Example 729, (S)-5-(2-(2-methylazetidin-1-yl)-6,7-dihydro-5H-cyclopenta[d]pyrimidin-4-yl)-1H-benzo[d][1,2,3]triazole]
23 | 16.2 | 1.9 | 21.5 | – | – | NC1(c2ccc(-c3nc(N4CCC4C(F)F)nc4c3CCC4(F)F)cc2)CS(=O)(=O)C1 (stereo not drawn) [Example 799, 3-amino-3-(4-(2-(2-(difluoromethyl)azetidin-1-yl)-7,7-difluoro-6,7-dihydro-5H-cyclopenta[d]pyrimidin-4-yl)phenyl)thietane 1,1-dioxide]
24 | 0.8 | 0.5 | 11.3 | – | – | N#CCC(N)c1ccc(-c2nc(N3CC[C@@H]3C(F)(F)F)nc3c2CCC3(F)F)cc1 (stereo partly drawn) [Example 803, 3-amino-3-(4-(7,7-difluoro-2-((R)-2-(trifluoromethyl)azetidin-1-yl)-6,7-dihydro-5H-cyclopenta[d]pyrimidin-4-yl)phenyl)propanenitrile]
25 | 25.8 | 1 | 10.4 | – | – | C[C@@H]1N(c2nc(-c3ccc4c(c3)OC[C@@]43COC(=O)N3)c3c(n2)C(F)(F)CC3)C[C@@]1(C)O [Example 829, (3R)-6-[7,7-difluoro-2-[(2S,3R)-3-hydroxy-2,3-dimethyl-azetidin-1-yl]-5,6-dihydrocyclopenta[d]pyrimidin-4-yl]spiro[2H-benzofuran-3,4′-oxazolidine]-2′-one]
26 | 6.3 | 0.6 | 8.7 | – | – | O=C1N[C@@]2(CO1)COc1cc(-c3nc(N4CCC4C(F)F)nc4c3CCC4(F)F)ccc12 (stereo partly drawn) [Example 831, (3R)-6-(2-(2-(difluoromethyl)azetidin-1-yl)-7,7-difluoro-6,7-dihydro-5H-cyclopenta[d]pyrimidin-4-yl)-2H-spiro[benzofuran-3,4′-oxazolidin]-2′-one]
27 | 2.5 | 5.7 | 20.5 | – | – | COc1ccc(-c2nc(N3C[C@@H](O)[C@@H]3C)nc3c2CCC3(F)F)cc1S(=N)(=O)C(F)F (stereo partly drawn) [Example 832, (2S,3R)-1-[4-[3-(difluoromethylsulfonimidoyl)-4-methoxy-phenyl]-7,7-difluoro-5,6-dihydrocyclopenta[d]pyrimidin-2-yl]-2-methyl-azetidin-3-ol]
